We go through 4 molecules from ChEMBL document CHEMBL5465560, “Selectivity Literature for EUbOPEN Chemogenomic Library” (2024).

In experiment [1] the target is T1, Serine/threonine-protein kinase tousled-like 1 (Homo sapiens) (UniProt Q9UKI8).
T1 sequence (whole entry): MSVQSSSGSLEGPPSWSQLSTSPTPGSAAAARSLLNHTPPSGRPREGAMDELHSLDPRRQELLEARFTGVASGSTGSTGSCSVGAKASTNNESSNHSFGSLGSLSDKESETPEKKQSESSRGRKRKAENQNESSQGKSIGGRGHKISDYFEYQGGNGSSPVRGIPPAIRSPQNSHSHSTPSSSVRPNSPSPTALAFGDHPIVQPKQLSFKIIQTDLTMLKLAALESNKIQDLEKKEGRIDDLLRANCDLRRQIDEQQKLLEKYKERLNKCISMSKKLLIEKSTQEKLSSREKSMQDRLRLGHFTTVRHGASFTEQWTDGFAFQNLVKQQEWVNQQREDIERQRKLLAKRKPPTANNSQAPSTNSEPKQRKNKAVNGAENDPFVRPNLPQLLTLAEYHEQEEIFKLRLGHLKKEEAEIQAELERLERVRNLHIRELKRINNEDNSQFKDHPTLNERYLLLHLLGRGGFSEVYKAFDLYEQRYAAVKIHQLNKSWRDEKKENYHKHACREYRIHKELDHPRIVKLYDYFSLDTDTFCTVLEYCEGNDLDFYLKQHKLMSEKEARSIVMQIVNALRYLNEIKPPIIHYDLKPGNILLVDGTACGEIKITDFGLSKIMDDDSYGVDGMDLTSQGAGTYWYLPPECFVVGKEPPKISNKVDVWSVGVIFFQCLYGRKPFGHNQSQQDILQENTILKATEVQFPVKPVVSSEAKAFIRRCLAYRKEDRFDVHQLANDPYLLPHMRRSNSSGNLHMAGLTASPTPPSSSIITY
Description: Selectivity interaction (KinomeScan (DiscoverX)) EUB0000607a TLK1. Particulars: at 10 µM.

The target in experiment [2] is Wee1-like protein kinase (Homo sapiens) (UniProt P30291). Nature of the experiment: Selectivity interaction (KinomeScan (DiscoverX)) EUB0000229b WEE1. Particulars: at 10 µM.
In experiment [3] the target is Calcium/calmodulin-dependent protein kinase type II subunit delta (Homo sapiens) (UniProt Q13557). Nature of the experiment: Selectivity interaction (KinomeScan (DiscoverX)) EUB0000229b CAMK2D. The following applies: at 10 µM.
Experiment [4] concerns the target Interferon-induced, double-stranded RNA-activated protein kinase (Homo sapiens) (UniProt P19525). Description: Selectivity interaction (ActivX KiNativ screen (kinase selectivity in THP-1 cell lysates)) EUB0000639a EIF2AK2. It is filed as subcellular. Particulars: lysate, at 0.2 µM.
The target of experiment [5] is T2, Ephrin type-B receptor 4 (Homo sapiens) (UniProt P54760).
T2 sequence (whole entry): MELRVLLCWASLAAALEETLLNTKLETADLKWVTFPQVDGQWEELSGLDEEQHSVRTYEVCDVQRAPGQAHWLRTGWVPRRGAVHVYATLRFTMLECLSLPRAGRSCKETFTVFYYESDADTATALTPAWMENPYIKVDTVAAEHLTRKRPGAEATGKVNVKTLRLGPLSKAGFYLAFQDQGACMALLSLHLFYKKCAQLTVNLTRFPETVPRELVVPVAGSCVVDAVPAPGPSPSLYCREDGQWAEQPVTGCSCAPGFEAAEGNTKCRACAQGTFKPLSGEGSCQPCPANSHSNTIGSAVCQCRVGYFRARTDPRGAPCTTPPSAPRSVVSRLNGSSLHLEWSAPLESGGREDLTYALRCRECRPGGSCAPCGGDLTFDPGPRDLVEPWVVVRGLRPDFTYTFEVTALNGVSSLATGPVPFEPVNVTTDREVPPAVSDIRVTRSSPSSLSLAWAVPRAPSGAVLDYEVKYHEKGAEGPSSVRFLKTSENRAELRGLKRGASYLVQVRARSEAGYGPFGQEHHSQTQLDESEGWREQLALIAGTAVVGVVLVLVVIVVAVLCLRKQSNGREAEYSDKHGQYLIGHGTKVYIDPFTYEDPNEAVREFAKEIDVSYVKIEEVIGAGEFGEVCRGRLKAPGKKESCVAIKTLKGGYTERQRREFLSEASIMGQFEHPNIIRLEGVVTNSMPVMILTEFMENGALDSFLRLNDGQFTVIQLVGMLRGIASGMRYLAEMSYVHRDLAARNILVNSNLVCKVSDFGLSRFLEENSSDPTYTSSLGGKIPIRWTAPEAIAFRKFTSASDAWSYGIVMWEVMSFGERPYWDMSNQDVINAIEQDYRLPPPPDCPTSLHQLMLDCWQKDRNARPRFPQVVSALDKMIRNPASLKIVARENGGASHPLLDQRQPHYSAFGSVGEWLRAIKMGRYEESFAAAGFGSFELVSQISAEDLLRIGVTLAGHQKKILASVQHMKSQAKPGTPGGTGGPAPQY
Nature of the experiment: Selectivity interaction (Kinase panel (Invitrogen)) EUB0000639a EPHB4. Particulars: at 200 nM.

The target of experiment [6] is T3, MAP/microtubule affinity-regulating kinase 4 (Homo sapiens) (UniProt Q96L34).
T3 sequence (whole entry): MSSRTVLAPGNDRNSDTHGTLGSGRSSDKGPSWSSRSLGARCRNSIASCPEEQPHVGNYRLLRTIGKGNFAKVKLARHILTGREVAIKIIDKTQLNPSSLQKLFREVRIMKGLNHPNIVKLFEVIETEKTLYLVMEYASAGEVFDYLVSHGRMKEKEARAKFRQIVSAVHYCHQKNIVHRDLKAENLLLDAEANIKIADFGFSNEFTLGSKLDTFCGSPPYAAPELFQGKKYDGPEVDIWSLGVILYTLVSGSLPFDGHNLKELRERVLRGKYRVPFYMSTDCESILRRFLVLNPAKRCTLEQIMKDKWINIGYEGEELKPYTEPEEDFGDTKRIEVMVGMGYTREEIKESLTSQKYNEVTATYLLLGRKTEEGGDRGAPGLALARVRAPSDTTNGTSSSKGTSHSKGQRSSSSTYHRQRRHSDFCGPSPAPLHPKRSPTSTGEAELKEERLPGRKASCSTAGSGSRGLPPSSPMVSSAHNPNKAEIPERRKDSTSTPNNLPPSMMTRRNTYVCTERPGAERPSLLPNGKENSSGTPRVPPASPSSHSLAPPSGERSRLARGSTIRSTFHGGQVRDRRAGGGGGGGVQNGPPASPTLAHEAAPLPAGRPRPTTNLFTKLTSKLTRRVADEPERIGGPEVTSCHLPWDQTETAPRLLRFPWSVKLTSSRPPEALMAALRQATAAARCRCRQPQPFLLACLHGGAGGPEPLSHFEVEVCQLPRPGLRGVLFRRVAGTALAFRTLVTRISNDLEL
Nature of the experiment: Selectivity interaction (KinomeScan (DiscoverX)) EUB0000618a MARK4. Particulars: at 10 µM.

Wee1-like protein kinase (Homo sapiens), sequence (P30291 whole entry, looked up): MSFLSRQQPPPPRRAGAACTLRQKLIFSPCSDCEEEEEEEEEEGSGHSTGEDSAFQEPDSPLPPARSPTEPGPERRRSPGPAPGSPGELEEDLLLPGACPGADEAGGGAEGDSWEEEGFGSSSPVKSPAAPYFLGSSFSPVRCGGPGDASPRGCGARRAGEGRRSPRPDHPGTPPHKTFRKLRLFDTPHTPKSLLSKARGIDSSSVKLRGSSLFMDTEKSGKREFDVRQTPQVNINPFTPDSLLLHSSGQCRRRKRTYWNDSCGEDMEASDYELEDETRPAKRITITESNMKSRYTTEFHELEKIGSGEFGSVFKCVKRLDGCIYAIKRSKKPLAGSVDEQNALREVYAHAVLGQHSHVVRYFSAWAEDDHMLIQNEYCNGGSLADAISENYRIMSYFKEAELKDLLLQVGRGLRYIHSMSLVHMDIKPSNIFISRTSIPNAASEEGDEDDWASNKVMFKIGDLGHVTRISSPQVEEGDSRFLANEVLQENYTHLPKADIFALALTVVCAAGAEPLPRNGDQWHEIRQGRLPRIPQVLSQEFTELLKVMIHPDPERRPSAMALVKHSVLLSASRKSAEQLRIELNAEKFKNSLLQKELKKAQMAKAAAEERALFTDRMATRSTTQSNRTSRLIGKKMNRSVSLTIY
Calcium/calmodulin-dependent protein kinase type II subunit delta (Homo sapiens), sequence (Q13557 whole entry): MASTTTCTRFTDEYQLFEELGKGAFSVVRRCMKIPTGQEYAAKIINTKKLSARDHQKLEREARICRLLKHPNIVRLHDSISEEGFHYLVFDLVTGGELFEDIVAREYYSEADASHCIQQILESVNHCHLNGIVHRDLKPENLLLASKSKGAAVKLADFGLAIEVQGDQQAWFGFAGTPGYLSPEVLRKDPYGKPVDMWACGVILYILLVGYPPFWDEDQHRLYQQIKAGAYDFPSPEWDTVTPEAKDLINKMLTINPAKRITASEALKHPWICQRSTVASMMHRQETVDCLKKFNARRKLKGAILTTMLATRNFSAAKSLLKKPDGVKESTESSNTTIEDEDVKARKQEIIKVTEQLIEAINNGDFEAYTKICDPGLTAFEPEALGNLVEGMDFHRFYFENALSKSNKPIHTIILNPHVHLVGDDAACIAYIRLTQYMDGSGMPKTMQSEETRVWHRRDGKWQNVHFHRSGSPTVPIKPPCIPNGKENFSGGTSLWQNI
Interferon-induced, double-stranded RNA-activated protein kinase (Homo sapiens), sequence (P19525 whole entry): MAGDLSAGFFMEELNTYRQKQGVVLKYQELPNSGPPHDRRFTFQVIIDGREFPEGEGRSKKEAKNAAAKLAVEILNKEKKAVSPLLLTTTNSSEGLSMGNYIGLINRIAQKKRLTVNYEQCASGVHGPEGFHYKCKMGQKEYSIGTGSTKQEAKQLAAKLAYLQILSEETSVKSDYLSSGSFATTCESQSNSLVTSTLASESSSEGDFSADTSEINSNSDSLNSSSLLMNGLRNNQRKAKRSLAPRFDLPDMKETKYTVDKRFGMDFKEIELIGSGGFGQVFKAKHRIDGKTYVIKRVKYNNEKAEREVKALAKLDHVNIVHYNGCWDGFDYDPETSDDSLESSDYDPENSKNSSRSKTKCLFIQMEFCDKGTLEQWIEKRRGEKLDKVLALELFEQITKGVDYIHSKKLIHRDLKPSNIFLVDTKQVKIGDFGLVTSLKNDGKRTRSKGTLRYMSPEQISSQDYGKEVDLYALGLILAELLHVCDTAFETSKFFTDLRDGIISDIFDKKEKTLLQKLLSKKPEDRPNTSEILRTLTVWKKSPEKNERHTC

In the case of `CNC(=O)Nc1ccc(-c2nc(N3CC4CCC(C3)O4)c3cnn(C4CCC5(CC4)OCCO5)c3n2)cc1`, the % of control in experiment [1] came out at 86%.

As for `COc1cc(N(C)c2ccnc3ccc(C(F)(F)F)cc23)cc(OC)c1OC`, the % binding in experiment [2] was 91%; in experiment [3], 95%.

`CC[C@@H]1[C@H](F)C(=O)N[C@@H]1COc1nccc2cc(C(N)=O)c(OC)cc12` [ZIMLOVISERTIB]: the % of inhibition in experiment [4] is -4.9%; in experiment [5], 4.33%.

As to `O[C@H]1CC[C@H](Nc2ncc3nc(Nc4c(F)cc(F)cc4F)n([C@H]4CCOC4)c3n2)CC1`, the % of control in experiment [6] is 100%.
